The text below walks through data of US9597417B2, “Compositions and methods to evaluate hepatobiliary/gastrointestinal health, enterohepatic circulation, and drug interactions” (The United States of America as represented by the …, priority 2013, dated 2017).

Series [1] addresses choloylglycine hydrolase from Clostridium perfringens (Clostridium perfringens, UniProt P54965). The following applies: 2 mM compound, 15 U CGH, pH 5.6, 37° C., ±SEM.
Series [2] in a line: Murine gallbladder imaging (mouse 6), 19F MRI and LC/MS/MS. The conditions noted are these: for concentration at 8.2 h: male, mouse 6, after imaging. Format: in vivo, C57BL/6 mice.
The nature of series [3]: Oral disposition characterization: pilot study in mice. The conditions noted are these: for concentration at 7 h: male, C57BL/6, mouse, po.
Series [4] in a line: In vitro stability in 0.1 M HCl, rat plasma, rat liver s9 fraction and simulated intestinal fluid. The following applies: 37° C.
In series [5] the target is T1, hASBT (sodium-independent passive uptake) (Homo sapiens, UniProt Q12908).
T1 sequence (Q12908 1-348): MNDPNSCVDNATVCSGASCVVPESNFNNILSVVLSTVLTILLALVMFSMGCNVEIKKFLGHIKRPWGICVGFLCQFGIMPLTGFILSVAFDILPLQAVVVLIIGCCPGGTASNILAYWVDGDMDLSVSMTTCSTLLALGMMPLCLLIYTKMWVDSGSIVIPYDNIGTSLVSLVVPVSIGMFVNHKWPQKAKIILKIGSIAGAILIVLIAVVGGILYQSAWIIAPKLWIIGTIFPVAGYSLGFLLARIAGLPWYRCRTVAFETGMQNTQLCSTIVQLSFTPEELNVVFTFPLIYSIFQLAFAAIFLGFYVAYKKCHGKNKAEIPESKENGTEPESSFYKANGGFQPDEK
As to the kind of experiment: Uptake of substrate by ASBT in ASBT-MDCK cells. The conditions noted are these: human; ASBT-MDCK cells, sodium free buffer; read-out: passive permeability (Pp). Type of series: cell-based.

Series [6] deals with T2, human apical sodium dependent bile acid transporter (hASBT) (Homo sapiens, UniProt Q12908).
T2 sequence (Q12908 1-348): T1 sequence (Q12908 1-348)
As to the kind of experiment: Uptake of substrate by ASBT in ASBT-MDCK cells. Type of series: cell-based. The following applies: ASBT uptake.

A further series in a line: Solubility in buffer. Type of series: physicochemical. The conditions noted are these: phosphate buffer, aqueous buffer, thermodynamic from solid; pH 6.8, room temperature, overnight, n=3, ±SEM. How it is done: Five (5) mg of compound was added to silanized centrifuge tubes containing 100 μL phosphate buffer at pH 6.8 (n=3), shaken, and left overnight at room temperature. […] Supernatant was diluted 10,000-fold with 1:1 ACN:water and analyzed by LC/MS/MS.

Series [7] concerns the target T3, human Na+/taurocholate cotransporting polypeptide (hNTCP) (Homo sapiens, UniProt Q14973).
T3 sequence (Q14973 1-349): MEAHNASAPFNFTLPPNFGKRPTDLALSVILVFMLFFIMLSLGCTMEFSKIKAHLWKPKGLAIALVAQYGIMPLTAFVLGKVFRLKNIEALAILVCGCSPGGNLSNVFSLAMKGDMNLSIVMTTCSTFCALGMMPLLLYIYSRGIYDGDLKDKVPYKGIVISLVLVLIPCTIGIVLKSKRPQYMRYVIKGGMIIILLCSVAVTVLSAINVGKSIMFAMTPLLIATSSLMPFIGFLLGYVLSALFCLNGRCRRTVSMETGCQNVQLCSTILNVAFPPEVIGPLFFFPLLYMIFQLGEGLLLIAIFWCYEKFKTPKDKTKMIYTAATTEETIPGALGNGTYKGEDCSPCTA
Kind of series: Uptake of substrate by NTCP in NTCP-HEK cells. The conditions noted are these: NTCP uptake. Format: cell-based.

Series [8] concerns the target T4, hNTCP (sodium-independent passive uptake) (Homo sapiens, UniProt Q14973).
T4 sequence (Q14973 1-349): T3 sequence (Q14973 1-349)
As to the kind of experiment: Uptake of substrate by NTCP in NTCP-HEK cells. Type of series: cell-based. The conditions noted are these: human; NTCP-HEK cells, sodium free buffer; read-out: passive permeability (Pp).

Series [9] has as its target T2, human apical sodium dependent bile acid transporter (hASBT). Kind of series: Inhibition of taurocholate uptake by ASBT in stably transfected ASBT-MDCK cells. Type of series: cell-based.
The target of series [10] is T3, human Na+/taurocholate cotransporting polypeptide (hNTCP). Kind of series: Inhibition of taurocholate uptake by NTCP in stably transfected NTCP-HEK cells. Type of series: cell-based.
Series [11] can be described thus: Disposition in Asbt knockout (Slc10a2-/-) and wild-type mice. Type of series: in vivo. The following applies: for gallbladder concentration / concentration at 7 h: n=4, 7 h after gavage 150 mg/kg, ±SEM; for gallbladder concentration: LC/MS/MS; for concentration at 7 h: mouse, oral, 150 mg/kg. How it is done:
Asbt-deficient (Slc10a2-/-) mice were obtained from a colony maintained at the Wake Forest School of Medicine. […] Gallbladder, liver, and plasma samples were collected at 7 h after dosing, and tissues were processed as described above and analyzed by LC/MS/MS.

The target in series [12] is T3, human Na+/taurocholate cotransporting polypeptide (hNTCP). The conditions noted are these: literature / historic data, same cell line; read-out: NTCP Km; cited from earlier work.
Substrate in series [13]: [H][C@@]12C[C@H](O)CC[C@]1(C)[C@@]1([H])C[C@H](O)[C@@]3(C)[C@@]([H])(CC[C@]3([H])C(C)CCC(=O)N(CCNC(=O)C(F)(F)F)CC(=O)O)[C@]1([H])[C@H](O)C2
Kind of series: Uptake of substrate by NTCP in NTCP-HEK cells. Format: cell-based, human. The conditions noted are these: other: uptake, 0-200 uM donor, hNTCP-HEK cells, ±SEM; 37.0 °C.

Substrate in series [14]: [H][C@@]12C[C@H](O)CC[C@]1(C)[C@@]1([H])C[C@H](O)[C@@]3(C)[C@@]([H])(CC[C@]3([H])C(C)CCC(=O)N(CCNC(=O)C(F)(F)F)CC(=O)O)[C@]1([H])[C@H](O)C2
As to the kind of experiment: Uptake of substrate by ASBT in ASBT-MDCK cells. Type of series: cell-based, human. The conditions noted are these: other: uptake, 0-200 uM donor, hASBT-MDCK cells, ±SEM; 37.0 °C.

Setting [15] is: individual mice 1-5, 7 h after oral 150 mg/kg, LC/MS/MS, 150 mg/kg.

≈ marks a conversion by molar mass, not a printed value. Where “and” joins values, the source holds several entries; their conditions need not be identical. Identical values can stand only once. Entries after “also recorded” stand apart in the source; their conditions may differ. Like-named read-outs stand apart in the source and are kept apart here.

choloylglycine hydrolase from Clostridium perfringens, sequence (P54965 whole entry, looked up): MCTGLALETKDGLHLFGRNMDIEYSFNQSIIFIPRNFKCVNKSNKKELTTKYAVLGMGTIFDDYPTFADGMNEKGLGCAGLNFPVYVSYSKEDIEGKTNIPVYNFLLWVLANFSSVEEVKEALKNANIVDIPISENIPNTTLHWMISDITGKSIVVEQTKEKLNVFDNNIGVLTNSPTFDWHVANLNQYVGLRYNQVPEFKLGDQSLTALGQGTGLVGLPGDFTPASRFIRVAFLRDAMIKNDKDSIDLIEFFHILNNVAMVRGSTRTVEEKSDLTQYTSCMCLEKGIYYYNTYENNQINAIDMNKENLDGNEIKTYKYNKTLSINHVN

By solubility is commonly meant how much of the substance goes into solution per volume. In general, Ki refers to a measure of affinity in units of concentration, obtained from inhibition or displacement. As to `CC(CCC(=O)N(CCNC(=O)C(F)(F)F)CC(=O)O)[C@H]1CC[C@H]2[C@@H]3[C@H](O)C[C@@H]4C[C@H](O)CC[C@]4(C)[C@H]3C[C@H](O)[C@]12C` (stereo partly shown) [CA-sar-TFMA, Cholic acid-sarcosine-trifluoro-N-methyl-acetamide], the “compound remaining after 4 h” value in [1] is on record as 103.9±2.9%. In addition, the concentration at 8.2 h in [2] (C57BL/6, liver, oral 150 mg/kg, read-out: liver concentration) is 7660 nM; in series [2] (C57BL/6, plasma, oral 150 mg/kg, read-out: plasma concentration), 870 nM. Moreover, the “LC/MS/MS gallbladder concentration, fold lower than by MRI” value in series [2] (mouse 6) was determined as 2.3 fold. In addition, the “gallbladder concentration by 19F MRI (gallbladder ROI normalized to phantom ROI)” value in [2] (mouse 6, 6.2-8.2 h after oral gavage of 150 mg/kg) came out at 34.2 mM. In addition, in [2] (mouse 6, after imaging and euthanasia, oral 150 mg/kg), the “gallbladder concentration by LC/MS/MS” value was 14.8 mM. For the same molecule, the “Gallbladder Conc.” value in [3] (setting [15]) is 16.5 mM (2×) and 25.0 mM and 17.2 mM and 16.9 mM. In series [3] (setting [15]), the “Liver Conc.” value was 20.8 µM and 16.0 µM and 12.9 µM and 9.5 µM and 13.5 µM. Moreover, the “Plasma Conc.” value in series [3] (setting [15]) was 1490 nM and 1810 nM and 940 nM and 1470 nM. Besides, the concentration at 7 h stood at 14500 ± 600 nM in [3] (liver, 150 mg/kg, Average liver concentration, mean of mice 1-5, 7 h after oral 150 mg/kg, ±SEM); 1400 ± 140 nM in series [3] (plasma, 150 mg/kg, Average plasma concentration, mean of mice 1-5, 7 h after oral 150 mg/kg, ±SEM); 1310 nM in [3] (plasma, 150 mg/kg, Plasma Conc., individual mice 1-5, 7 h after oral 150 mg/kg, LC/MS/MS); 900 ± 30 nM in [11] (liver, Asbt knockout mice, read-out: Liver concentration); 4970 ± 1470 nM in series [11] (liver, WT mice, read-out: Liver concentration); 220 ± 90 nM in series [11] (plasma, Asbt knockout mice, read-out: Plasma concentration). Also, in series [11] (plasma, WT mice, read-out: Plasma concentration), the concentration at 7 h was determined as 3800 ± 4150 nM. The molecule also returned an Average gallbladder concentration in [3] (mean of mice 1-5, 7 h after oral 150 mg/kg, ±SEM) of 18.4 ± 1.6 mM. Besides, in series [3] (on average, 7 h after oral 150 mg/kg), the “accumulation in liver and plasma, fold lower than in gallbladder” value is reported as “at least 1,000 fold”. In addition, the “stability: concentration at t=4 h vs initial concentration” value in [4] (0.1 M HCl, 5 μM) is listed as “no evidence of degradation; also recorded: not different from initial concentration”; in [4] (rat plasma, 5 μM), “no evidence of degradation; also recorded: not different from initial concentration”; in series [4] (simulated intestinal fluid with pancreatic enzymes (SIF), pH 7.5, 5 μM), “no evidence of degradation; also recorded: not different from initial concentration”. Also, the Papp stood at 0.21 ×10⁻⁶ cm/s in [5] and 0.043 ×10⁻⁶ cm/s in [8]. Further, the entries for the “normVmax (normalized to taurocholate Vmax on the same occasion)” value in [6] and in [7] were 1.50 and 0.24, respectively. Also, the concentration in solution in the series “Solubility in buffer” (solubility) was 33500 ± 1600 µM (≈ 20.3 mg/mL). The inhibitory constant (Ki) in [9] is 21.5 ± 4 µM; in series [10], 2.64 ± 0.55 µM. Besides, the “gallbladder concentration, fold higher in WT than in knockout mice” value in series [11] (7 h after gavage 150 mg/kg) stood at 16.1 fold. Moreover, the gallbladder concentration in series [11] (Asbt knockout (Slc10a2-/-) mice) worked out at 0.41 ± 0.14 mM; in series [11] (wild-type (WT) mice), 6.61 ± 0.98 mM.
What is called Km is the concentration of substrate that gives half-maximal velocity. Regarding `C[C@H](CCC(=O)NCCS(=O)(=O)O)[C@H]1CC[C@H]2[C@@H]3[C@H](O)C[C@@H]4C[C@H](O)CC[C@]4(C)[C@H]3C[C@H](O)[C@]12C` [taurocholate], the Michaelis-Menten constant (Km) in [12] was 5.31 µM.

B1: human Na+/taurocholate cotransporting polypeptide (hNTCP) (Homo sapiens) (protein)
chain: T3 sequence (Q14973 1-349)
As for B1, the Michaelis-Menten constant (Km) in [13] worked out at 2.19 ± 0.63 µM.

B2: human apical sodium dependent bile acid transporter (hASBT) (Homo sapiens) (protein)
chain: T1 sequence (Q12908 1-348)
With B2, in series [14], the Michaelis-Menten constant (Km) amounted to 73.2 ± 7.0 µM.
